Measurements from patent US12404289B2 (Gilead Sciences, Inc., priority 2020, dated 2025).
Read-outs that look alike come from different tables or passages of the source.

Tests used:
Format in all cases: cell-based
[1] = tested on: Respiratory syncytial virus (RSV) strain A2; assay: RSV antiviral assay (HEp-2, 96 well)
[2] = CC50 assay (cytopathology in HEp-2 cells); settings: human, HEp-2 cells, 4 days, CellTiter-Glo, read-out: RSV CC50
Procedure: The cytopathology of compounds in HEp-2 cells is determined in the following manner. HEp-2 cells are suspended in DMEM+GlutaMAX (supplemented with 10% FBS and 1% Penicillin/Streptomycin) and seeded into 96 well plates (3×10^3/well). After a 4-hour incubation at 37° C.+5% CO2, three-fold serial dilutions of compounds are added to each well using an HP D300e digital dispenser. The cells are then incubated for 4 days at 37° C. and 5% CO2. The final volume in each well is 200 μL. Untreated wells are included as controls for 100% cell viability, while compounds treated with 5 uM puromycin are included as controls for 0% viability. Following the incubation, 100 μL of culture supernatant is removed from each well and replaced with 100 μL of CellTiter-Glo reagent (Promega, Madison, WI, Cat #G7573). The plates are then rocked for 2 minutes followed by a 10-minute incubation at 25° C. Compound-induced cytopathic effect is then assessed by measuring luminescence signal using and Envision plate reader. Values are normalized to the untreated DMSO and puromycin-treated controls (as 100% and 0% viability, respectively) and data is fit using non-linear regression analysis using XLfit4. The CC50 value for each compound is then determined as the concentration reducing cell viability by 50%.

SARS-CoV-2 = SARS-CoV-2 antiviral assay (A549-hACE2, Nano luciferase); settings: A549-hACE2 cells, SARS-CoV2-Nano, MOI 0.025, 48 h, Table 4, read-out: EC50 SARS CoV2
[3] = tested on: Respiratory syncytial virus (RSV) strain A2; assay: Hep-2 RSV2 384-well assay (EC50-HEP2-384); settings: HEp-2 cells, RSV A2, MOI=4, 4 days
[4] = tested on: Respiratory syncytial virus recombinant with luciferase (RSV-Luc5); assay: microbe, parasite or virus in culture
[5] = tested on: Recombinant respiratory syncytial virus expressing the firefly luciferase protein (RSV-Fluc); assay: microbe, parasite or virus in culture; settings: Table 4
[6] = human respiratory syncytial virus, HEp-2, 96 h, read-out: EC50-RSV-HEP-2-96, HEp-2 cells, RSV A2, MOI=4, 4 days, 96 well, CellTiter-Glo, Table 1
[7] = human respiratory syncytial virus, HEp-2, 96 h, read-out: EC50-RSV-HEP-2-96, HEp-2 cells, RSV A2, MOI=4, 4 days, 96 well, Table 2
[8] = read-out: EC50 RSV HEP2 96, HEp-2 cells, RSV A2, MOI=4, 4 days, 96 well, Table 3
[9] = human respiratory syncytial virus, HEp-2, 96 h, Table 3
[10] = read-out: EC50 RSVFluc-Hep2 384, HEp-2 cells, RSV-Luc5, MOI=0.5, 3 days, 384 well, Table 3
[11] = read-out: EC50 RSVFluc NHBE 96, NHBE cells, RSV-Fluc, MOI of 0.1, three days, 96 well
[12] = Severe acute respiratory syndrome coronavirus 2, 48 h
[13] = human respiratory syncytial virus, HEp-2, 72 h, read-out: EC50 RSVFluc-Hep2 384, HEp-2 cells, RSV-Luc5, MOI=0.5, 3 days, 384 well, Table 3
[14] = human respiratory syncytial virus, NHBE, 72 h, read-out: EC50 RSVFluc NHBE 96, NHBE cells, RSV-Fluc, MOI of 0.1, three days, 96 well

Structure (SMILES) | EC50 [1, 6] | CC50 at 4 days ([2]; Table 1) | EC50 [3, 9] | EC50 (SARS-CoV-2; [12]) | EC50 [5, 14] | also measured
COC(=O)[C@H](C)N[P@](=O)(OC[C@H]1O[C@@](C#N)(c2ccc3c(N)ncnn23)[C@H](OC(C)=O)[C@@H]1OC(C)=O)Oc1ccccc1 [Example 6, (2R,3R,4R,5R)-2-(4-aminopyrrolo[2,1-f][1,2,4]triazin-7-yl)-2-cyano-5-((((S)—(((S)-1-methoxy-1-oxopropan-2-yl)amino)(phenoxy)phosphoryl)oxy)methyl) tetrahydrofuran-3,4-diyl Diacetate] | 193 nM | 26400 nM | – | – | – | –
C[C@H](NP(=O)(OC[C@H]1O[C@@](C#N)(c2ccc3c(N)ncnn23)[C@H](O)[C@@H]1O)Oc1ccccc1)C(=O)OC1CCC1 (some centres unmarked) | – | – | – | – | – | EC50 [1, 7]: 75.1 nM; CC50 at 4 days ([2]; Table 2): 34200 nM
CCOCCOCCOC(=O)[C@H](C)NP(=O)(OC[C@H]1O[C@@](C#N)(c2ccc3c(N)ncnn23)[C@H](OC(=O)C(C)C)[C@@H]1OC(=O)C(C)C)Oc1ccccc1 (stereo partly drawn) [Example 23, (2R,3R,4R,5R)-2-(4-Aminopyrrolo[2,1-f][1,2,4]triazin-7-yl)-2-cyano-5-((((((S)-1-(2-(2-ethoxyethoxy)ethoxy)-1-oxopropan-2-yl)amino)(phenoxy)phosphoryl)oxy)methyl)tetrahydrofuran-3,4-diyl bis(2-methylpropanoate)] | 75.9 nM | 5640 nM | – | – | – | –
COC(C)(C)COC(=O)[C@H](C)NP(=O)(OC[C@H]1O[C@@](C#N)(c2ccc3c(N)ncnn23)[C@H](O)[C@@H]1O)Oc1ccccc1 (stereo partly drawn) [Example 24, 2-Methoxy-2-methylpropyl ((((2R,3S,4R,5R)-5-(4-aminopyrrolo[2,1-f][1,2,4]triazin-7-yl)-5-cyano-3,4-dihydroxytetrahydrofuran-2-yl)methoxy)(phenoxy)phosphoryl)-L-alaninate] | 1470 nM | > 50000 nM | – | – | – | –
CCC(CC)COC(=O)[C@H](C)NP(=O)(OC[C@H]1O[C@@](C#N)(c2ccc3c(N)ncnn23)[C@H](O)[C@@H]1O)Oc1c(C)cccc1C (stereo partly drawn) [Example 19, 2-Ethylbutyl ((((2R,3S,4R,5R)-5-(4-aminopyrrolo[2,1-f][1,2,4]triazin-7-yl)-5-cyano-3,4-dihydroxytetrahydrofuran-2-yl)methoxy)(2,6-dimethylphenoxy)phosphoryl)-L-alaninate] | 687 nM | 26500 nM | – | – | – | –
CC(=O)O[C@H]1[C@@H](OC(C)=O)[C@](C#N)(c2ccc3c(N)ncnn23)O[C@@H]1COP(=O)(N[C@@H](C)C(=O)OC1CC2(CCC2)C1)Oc1cccc2ccccc12 (single isomer, unassigned) [Example 83b] | – | – | 27.9 nM | – | – | EC50 [1, 8]: 7.32 nM; EC50 (SARS-CoV-2): 32.8 nM; EC50 [4, 10]: 20.4 nM; EC50 [5, 11]: 7.12 nM
COC(=O)[C@H](C)N[P@](=O)(OC[C@H]1O[C@@](C#N)(c2ccc3c(N)ncnn23)[C@H](OC(=O)C(C)C)[C@@H]1OC(=O)C(C)C)Oc1ccccc1 [Example 4, (2R,3R,4R,5R)-2-(4-aminopyrrolo[2,1-f][1,2,4]triazin-7-yl)-2-cyano-5-((((S)—(((S)-1-methoxy-1-oxopropan-2-yl)amino)(phenoxy)phosphoryl)oxy)methyl)tetrahydrofuran-3,4-diyl bis(2-methylpropanoate)] | 93.9 nM | 5580 nM | – | – | – | –
CC(C)OC(=O)[C@H](C)N[P@](=O)(OC[C@H]1O[C@@](C#N)(c2ccc3c(N)ncnn23)[C@H](O)[C@@H]1O)Oc1ccccc1 | – | – | – | – | – | EC50 [1, 7]: 364 nM; CC50 at 4 days ([2]; Table 2): > 9600 nM
CCOC(=O)[C@H](C)NP(=O)(OC[C@H]1O[C@@](C#N)(c2ccc3c(N)ncnn23)[C@H](O)[C@@H]1O)Oc1ccccc1 (some centres unmarked) | – | – | – | – | – | EC50 [1, 7]: 296 nM; CC50 at 4 days ([2]; Table 2): > 70000 nM
CCC(CC)COC(=O)[C@H](C)NP(=O)(OC[C@H]1O[C@@](C#N)(c2ccc3c(N)ncnn23)[C@H](OC(=O)C(C)C)[C@@H]1OC(=O)C(C)C)Oc1cc(C)ccc1C(C)C (stereo partly drawn) [Example 27, (2R,3R,4R,5R)-2-(4-Aminopyrrolo[2,1-f][1,2,4]triazin-7-yl)-2-cyano-5-((((((S)-1-(2-ethylbutoxy)-1-oxopropan-2-yl)amino)(2-isopropyl-5-methylphenoxy)phosphoryl)oxy)methyl)tetrahydrofuran-3,4-diyl bis(2-methylpropanoate)] | 958 nM | 5860 nM | – | – | – | –
CC(=O)O[C@H]1[C@@H](OC(C)=O)[C@](C#N)(c2ccc3c(N)ncnn23)O[C@@H]1COP(=O)(N[C@@H](C)C(=O)OC1CC(C)(C)C1)Oc1ccc(C(C)(C)C)cc1 (single isomer, unassigned) [Example 96a] | – | – | 26.5 nM | 198 nM | – | EC50 [4, 13]: 21.2 nM; EC50 [5, 11]: 8.53 nM
CC(=O)O[C@H]1[C@@H](OC(C)=O)[C@](C#N)(c2ccc3c(N)ncnn23)O[C@@H]1COP(=O)(N[C@@H](C)C(=O)OC1CC2(CCC2)C1)Oc1ccccc1 (single isomer, unassigned) [Example 45a] | – | – | – | 72.8 nM | 7.29 nM | EC50 ([3]; Table 3): 60.4 nM; EC50 [4, 10]: 22.7 nM
CCC(CC)COC(=O)[C@H](C)NP(=O)(OC[C@H]1O[C@@](C#N)(c2ccc3c(N)ncnn23)[C@H](O)[C@@H]1O)Oc1ccc(C(C)(C)C)cc1 (single isomer, unassigned) [Example 13b] | – | – | – | – | – | EC50 (SARS-CoV-2): 174 nM; EC50 ([3]; Table 1): 33.4 nM; EC50 ([4]; read-out: EC50 RSVFluc-Hep2 384, HEp-2 cells, RSV-Luc5, MOI=0.5, 3 days, 384 well, One-Glo, Table 1): 26.7 nM; EC50 [5, 11]: 6.86 nM
CCC(CC)COC(=O)[C@H](C)NP(=O)(OC[C@H]1O[C@@](C#N)(c2ccc3c(N)ncnn23)[C@H](O)[C@@H]1O)Oc1ccc(C(C)(C)C)cc1 (single isomer, unassigned) [Example 13a] | – | – | – | 181 nM | 5.92 nM | EC50 ([3]; Table 1): 91.2 nM; EC50 ([4]; human respiratory syncytial virus, HEp-2, 72 h, read-out: EC50 RSVFluc-Hep2 384, HEp-2 cells, RSV-Luc5, MOI=0.5, 3 days, 384 well, One-Glo, Table 1): 52.1 nM
CC(=O)O[C@H]1[C@@H](OC(C)=O)[C@](C#N)(c2ccc3c(N)ncnn23)O[C@@H]1COP(=O)(N[C@@H](C)C(=O)OC1CC(C)(C)C1)Oc1ccc(C(C)(C)C)cc1 (stereo partly drawn) [Example 96, (2R,3R,4R,5R)-2-(4-aminopyrrolo[2,1-f][1,2,4]triazin-7-yl)-5-((((4-(tert-butyl)phenoxy)(((S)-1-(3,3-dimethylcyclobutoxy)-1-oxopropan-2-yl)amino)phosphoryl)oxy)methyl)-2-cyanotetrahydrofuran-3,4-diyl Diacetate] | – | – | 39.9 nM | 95.9 nM | 5.48 nM | EC50 [4, 13]: 30.2 nM
CC(=O)O[C@H]1[C@@H](OC(C)=O)[C@](C#N)(c2ccc3c(N)ncnn23)O[C@@H]1COP(=O)(N[C@@H](C)C(=O)OCC1CC1)Oc1ccc(C(C)(C)C)cc1 (single isomer, unassigned) [Example 102a] | – | – | 32 nM | 155 nM | 8.46 nM | EC50 [4, 10]: 8.68 nM
C[C@H](NP(=O)(OC[C@H]1O[C@@](C#N)(c2ccc3c(N)ncnn23)[C@H](O)[C@@H]1O)Oc1ccccc1)C(=O)OC1CC2(CCC2)C1 (stereo partly drawn) [Example 44, spiro[3.3]heptan-2-yl ((((2R,3S,4R,5R)-5-(4-aminopyrrolo[2,1-f][1,2,4]triazin-7-yl)-5-cyano-3,4-dihydroxytetrahydrofuran-2-yl)methoxy)(phenoxy)phosphoryl)-L-alaninate] | – | – | 56 nM | 104 nM | 9.47 nM | EC50 [4, 13]: 18.3 nM
CCC(CC)COC(=O)[C@H](C)NP(=O)(OC[C@H]1O[C@@](C#N)(c2ccc3c(N)ncnn23)[C@H](OC(C)=O)[C@@H]1OC(C)=O)Oc1cccc2ccccc12 (single isomer, unassigned) [Example 78b] | – | – | 75.6 nM | – | 5.67 nM | EC50 [1, 8]: 21 nM; EC50 (SARS-CoV-2): 20 nM; EC50 [4, 13]: 33.8 nM
